Data reported in article PMC11013038, “Design, Synthesis, and Evaluation of B-(Trifluoromethyl)phenyl Phosphine–Borane Derivatives as Novel Progesterone Receptor Antagonists” (Molecules, 2024).

Key:
androgen receptor (AR) = target: T1, androgen receptor (AR) (Mus musculus, UniProt P19091); assay: SC-3 cell proliferation assay, AR agonistic activity (compound alone); format: cell-based, murine; settings: for EC50: SC-3 cells, induction of cell proliferation by single treatment of the compound, 0.01 μM to 10 μM, read-out: EC50 (agonist); for effect on SC-3 cell growth in the absence of dihydrotestosterone (AR agonistic activity): androgen-dependent SC-3 cells
T1 construct: SC-3 cells were cultured in MEMα (Fujifilm Wako Co.) supplemented with 2 %; endogenous in cells; host or cells: SC-3
T1 sequence (P19091 1-899): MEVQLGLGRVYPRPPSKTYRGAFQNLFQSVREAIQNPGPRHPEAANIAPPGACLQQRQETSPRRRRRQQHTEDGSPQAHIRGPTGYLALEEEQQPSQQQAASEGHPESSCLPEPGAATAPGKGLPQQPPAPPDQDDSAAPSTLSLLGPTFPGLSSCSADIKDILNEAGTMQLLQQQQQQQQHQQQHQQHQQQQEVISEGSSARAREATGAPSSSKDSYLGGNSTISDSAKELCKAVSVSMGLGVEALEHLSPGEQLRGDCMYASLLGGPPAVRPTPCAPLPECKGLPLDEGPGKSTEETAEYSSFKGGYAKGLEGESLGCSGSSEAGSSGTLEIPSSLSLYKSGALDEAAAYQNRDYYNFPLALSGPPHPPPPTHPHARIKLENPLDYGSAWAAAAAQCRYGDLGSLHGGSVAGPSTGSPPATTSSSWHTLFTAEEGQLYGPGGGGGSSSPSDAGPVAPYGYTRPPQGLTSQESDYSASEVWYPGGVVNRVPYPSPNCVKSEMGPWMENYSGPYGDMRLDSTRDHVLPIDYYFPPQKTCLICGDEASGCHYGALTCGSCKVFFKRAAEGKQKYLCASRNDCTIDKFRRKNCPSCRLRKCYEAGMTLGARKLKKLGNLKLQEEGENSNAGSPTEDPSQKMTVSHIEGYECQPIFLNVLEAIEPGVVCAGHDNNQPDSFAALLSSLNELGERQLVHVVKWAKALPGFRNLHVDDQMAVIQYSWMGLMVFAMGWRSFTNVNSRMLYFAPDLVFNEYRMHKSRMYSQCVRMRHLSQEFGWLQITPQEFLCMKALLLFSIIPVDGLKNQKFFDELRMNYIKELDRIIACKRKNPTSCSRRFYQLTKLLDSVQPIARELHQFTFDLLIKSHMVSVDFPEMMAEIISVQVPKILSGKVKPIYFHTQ

C[P+](C)(C)[BH2-]c1ccc(C(F)(F)F)cc1 [Compound 28, B-4-(Trifluoromethyl)phenyl Trimethylphosphine–Borane]
EC50 (androgen receptor (AR)): > 10 µM
effect on SC-3 cell growth in the absence of dihydrotestosterone (AR agonistic activity) (androgen receptor (AR)): did not affect cell growth

FC(F)(F)c1ccc([BH2-][P+](C2CC2)(C2CC2)C2CC2)cc1 [Compound 34, B-4-(Trifluoromethyl)phenyl Tricyclopropylphosphine–Borane]
EC50 (androgen receptor (AR)): > 10 µM
effect on SC-3 cell growth in the absence of dihydrotestosterone (AR agonistic activity) (androgen receptor (AR)): did not affect cell growth
melting point: 72.6 to 72.8 °C
